The structures appear in SMILES notation.

For the first assay, the target named is T1, purified ITK (Invitrogen PV3875) (Homo sapiens, UniProt Q08881).
T1 construct: purchased Invitrogen PV3875
T1 sequence (Q08881 1-620): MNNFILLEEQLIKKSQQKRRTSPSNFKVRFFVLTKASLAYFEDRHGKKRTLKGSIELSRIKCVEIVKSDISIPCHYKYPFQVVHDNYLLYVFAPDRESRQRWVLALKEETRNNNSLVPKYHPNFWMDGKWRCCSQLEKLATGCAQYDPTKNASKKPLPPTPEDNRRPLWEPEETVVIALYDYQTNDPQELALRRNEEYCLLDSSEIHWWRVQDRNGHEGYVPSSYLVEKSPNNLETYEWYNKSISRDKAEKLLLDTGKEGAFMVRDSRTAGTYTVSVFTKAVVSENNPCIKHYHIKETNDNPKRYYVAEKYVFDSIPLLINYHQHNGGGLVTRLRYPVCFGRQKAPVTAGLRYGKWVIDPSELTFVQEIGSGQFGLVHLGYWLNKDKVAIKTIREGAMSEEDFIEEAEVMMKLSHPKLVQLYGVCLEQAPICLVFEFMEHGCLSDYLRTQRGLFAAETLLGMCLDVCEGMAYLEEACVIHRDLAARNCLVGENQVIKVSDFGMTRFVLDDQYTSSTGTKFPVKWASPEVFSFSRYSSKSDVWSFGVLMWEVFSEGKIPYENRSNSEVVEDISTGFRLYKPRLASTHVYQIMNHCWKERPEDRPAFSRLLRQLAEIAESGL
Kind of assay: ITK peptide phosphorylation assay (Caliper LabChip or LCMS). It counts as biochemical. The conditions noted are these: Table 1, Examples 141-279. In outline: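 Ki values come from Morrison quadratic fits of activity versus inhibitor concentration, adjusted for ATP-competitive inhibition against ATP/Km,app. Substrate and phosphopeptide from purified ITK reactions were resolved either microfluidically (Caliper, EDTA stop) or by LC-MS MRM (TCA stop).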
Regarding `CNc1cc(-c2ccc3c(C(=O)Nc4cnn(Cc5ccccc5)c4)n[nH]c3c2)ncn1` [Example 217, N-(1-benzylpyrazol-4-yl)-6-[6-(methylamino)py-rimidin-4-yl]-1H-indazole-3-carboxamide], the affinity corresponds to a Ki of 404 nM.
Still for that read-out and setting: the same measure for `COC(=O)C(c1ccccc1)n1cc(NC(=O)c2n[nH]c3ccccc23)cn1` (centres unmarked) [Example 255, methyl 2-[4-(1H-indazole-3-carbonylamino)py-razol-1-yl]-2-phenyl-acetate]: 38.3 nM.
As to `CS(=O)(=O)CCC(c1ccccc1)n1cc(NC(=O)c2n[nH]c3ccccc23)cn1` (centres unmarked) [Example 277, N-[1-(3-methylsulfonyl-1-phenyl-propyl)pyrazol-4-yl]-1H-indazole-3-carboxamide], the Ki (as a rule, the equilibrium dissociation constant of an inhibitor or competing ligand from its target) was 114 nM.
Still for that read-out and setting: the same measure for `O=C(Nc1cnn(Cc2cccc(N3CCC(O)C3)c2)c1)c1n[nH]c2cc(-c3cn[nH]c3)ccc12` (centres unmarked) [Example 161, N-[1-[[3-(3-hydroxypyrrolidin-1-yl)phenyl]meth-yl]pyrazol-4-yl]-6-(1H-pyrazol-4-yl)-1H-indazole-3-carboxamide]: 1.15 nM.
Still for that read-out and setting: the same measure for `Cc1cc2c(C(=O)Nc3cnn(Cc4cccc(C#N)c4)c3)n[nH]c2cc1-c1cccnc1` [Example 149, N-[1-[(3-cyanophenyl)meth-yl]pyrazol-4-yl]-5-methyl-6-(3-pyridyl)-1H-indazole-3-carboxamide]: 71.1 nM.
On the same count and under the same terms, then `CCC(c1ccccc1)n1cc(NC(=O)c2n[nH]c3cc(-c4cncc(OC)c4)ccc23)cn1` (centres unmarked) [Example 214, 6-(5-methoxy-3-pyridyl)-N-[1-(1-phenylpropyl)py-razol-4-yl]-1H-indazole-3-carboxamide], with 7.17 nM; and `N#Cc1cccc(Cn2cc(NC(=O)c3n[nH]c4cc(-c5cncc(Cl)c5)ccc34)cn2)c1` [Example 224, 6-(5-chloro-3-pyridyl)-N-[1-[(3-cyanophenyl)meth-yl]pyrazol-4-yl]-1H-indazole-3-carboxamide], with 5.18 nM.
As to `COC1CCN(c2ccc3c(C(=O)Nc4cnn(Cc5cccc(C#N)c5)c4)n[nH]c3c2)C1` (centres unmarked) [Example 208, N-[1-[(3-cyanophenyl)meth-yl]pyrazol-4-yl]-6-(3-methoxypyrrolidin-1-yl)-1H-indazole-3-carboxamide], the inhibition constant Ki came to 458 nM.
On to `CC(C)(O)Cn1cc(NC(=O)c2n[nH]c3cc(-c4cn[nH]c4)ccc23)cn1` [Example 170, N-[1-(2-hydroxy-2-methyl-propyl)pyrazol-4-yl]-6-(1H-pyrazol-4-yl)-1H indazole-3-carboxamide], for which the affinity, expressed as Ki, was 8.74 nM.
In the case of `CN1CC=C(c2ccc3c(C(=O)Nc4cnn(Cc5cccc(C#N)c5)c4)n[nH]c3c2)CC1` [Example 165, N-[1-[(3-cyanophenyl)meth-yl]pyrazol-4-yl]-6-(1-methyl-3,6-dihydro-2H-pyridin-4-yl)-1H-indazole-3-carboxamide], the affinity, expressed as Ki, was 654 nM.
The same measure, in the same setting: then `COc1cncc(-c2ccc3c(C(=O)Nc4cnn(C(CN5CCN(C)CC5)c5cccnc5)c4)n[nH]c3c2)c1` (centres unmarked) [Example 232, 6-(5-methoxy-3-pyridyl)-N-[1-[2-(4-methylpiperazin-1-yl)-1-(3-pyridyl)ethyl]py-razol-4-yl]-1H-indazole-3-carboxamide], with 31.4 nM.
Still for that read-out and setting: then `O=C(Nc1cnn(CC2CC2)c1)c1n[nH]c2cc(-c3cn[nH]c3)ccc12` [Example 240, N-[1-(cyclopropylmeth-yl)pyrazol-4-yl]-6-(1H-pyrazol-4-yl)-1H-indazole-3-carboxamide], with 5.33 nM; and `N#Cc1cccc(Cn2cc(NC(=O)c3n[nH]c4cc(C5CCNCC5)ccc34)cn2)c1` [Example 179, N-[1-[(3-cyanophenyl)meth-yl]pyrazol-4-yl]-6-(4-piperidyl)-1H-indazole-3-carboxamide], with 154 nM.
`CN(CCC(c1ccccc1)n1cc(NC(=O)c2n[nH]c3ccccc23)cn1)CC(F)(F)F` (centres unmarked) [Example 270, N-[1-[3-[methyl(2,2,2-trifluoroethyl)a-mino]-1-phenyl-propyl]pyrazol-4-yl]-1H-indazole-3-carboxamide] returned a Ki of 8.92 nM.
Still for that read-out and setting: the same measure for `COc1cncc(-c2ccc3c(C(=O)Nc4cnn(C(CCN(C)C)c5ccccc5)c4)n[nH]c3c2)c1` (centres unmarked) [Example 212, N-[1-[3-(dimethylamino)-1-phenyl-propyl]pyrazol-4-yl]-6-(5-methoxy-3-pyridyl)-1H-indazole-3-carboxamide]: 1.64 nM; for `Cc1cc2c(C(=O)Nc3cnn(Cc4cccc(C#N)c4)c3)n[nH]c2cc1-c1cc[nH]n1` [Example 156, N-[1-[(3-cyanophenyl)meth-yl]pyrazol-4-yl]-5-methyl-6-(1H-pyrazol-3-yl)-1H-indazole-3-carboxamide]: 80.8 nM.

Staying with this assay, now noted: Table 2, Examples 1-140, class symbols.
`O=C(Nc1cnn(Cc2cccc(N3CCOCC3)c2)c1)c1n[nH]c2cc(-c3cn[nH]c3)ccc12` [Example 40, N-[1-[(3-morpholinophenyl)methyl]pyrazol-4-yl]-6-(1H-pyrazol-4-yl)-1H-indazole-3-carboxamide]: the Ki was in the range of 0.01 to 1 nM.
Same read-out and setting: then `CCn1cc(NC(=O)c2n[nH]c3cc(-c4cn[nH]c4)ccc23)cn1` [Example 83, N-(1-ethyl-1H-pyrazol-4-yl)-6-(1H-pyrazol-4-yl)-1H-indazole-3-carboxamide], with 1 to 100 nM; and `O=C(Nc1cnn(Cc2noc3ccccc23)c1)c1n[nH]c2cc(-c3cn[nH]c3)ccc12` [Example 14, 6-(1H-Pyrazol-4-yl)-1H-indazole-3-carboxylic acid (1-1,2-benzisoxazol-3-ylmethyl-1H-pyrazol-4-yl)-amide], with 1 to 100 nM.
Same read-out and setting: the same measure for `N#Cc1cccc(Cn2cc(NC(=O)c3n[nH]c4cc(N5CCCC5)ccc34)cn2)c1` [Example 86, N-(1-(3-cyanobenzyl)-1H-pyrazol-4-yl)-6-(pyrrolidin-1-yl)-1H-indazole-3-carboxamide]: 1 to 100 nM; for `O=C(Nc1cnn(Cc2cccc(CN3CCC3)c2)c1)c1n[nH]c2ccccc12` [Example 91, N-(1-(3-(azetidin-1-ylmethyl)benzyl)-1H-pyrazol-4-yl)-1H-indazole-3-carboxamide]: 1 to 100 nM; for `CC[C@@H](c1ccccc1)n1cc(NC(=O)c2n[nH]c3cc(-c4cc[nH]n4)ccc23)cn1` [Example 137, (S)—N-(1-(1-phenylpropyl)-1H-pyrazol-4-yl)-6-(1H-pyrazol-3-yl)-1H-indazole-3-carboxamide]: 1 to 100 nM.
Same read-out and setting: then `O=C(Nc1cnn(Cc2cccc(-c3nn[nH]n3)c2)c1)c1n[nH]c2cc(-c3cn[nH]c3)ccc12` [Example 48, 6-(1H-Pyrazol-4-yl)-1H-indazole-3-carboxylic acid {1-[3-(2H-tetrazol-5-yl)-benzyl]-1H-pyrazol-4-yl}-amide], with 0.01 to 1 nM; and `CC[C@@H](c1ccccc1)n1cc(NC(=O)c2n[nH]c3cc(-c4cccnc4)ccc23)cn1` [Example 139, (S)—N-(1-(1-phenylpropyl)-1H-pyrazol-4-yl)-6-(pyridin-3-yl)-1H-indazole-3-carboxamide], with 1 to 100 nM.
In turn, `CC(O)CNCc1ccc(Cn2cc(NC(=O)c3n[nH]c4ccccc34)cn2)cc1` (centres unmarked) [Example 106, N-(1-(4-((2-hydroxypropylamino)methyl)benzyl)-1H-pyrazol-4-yl)-1H-indazole-3-carboxamide] registered a Ki of 1 to 100 nM.
The same measure, in the same setting: the same measure for `O=C(Nc1cnn(Cc2ccc(Cl)cc2)c1)c1n[nH]c2ccccc12` [Example 58, N-(1-(4-chlorobenzyl)-1H-pyrazol-4-yl)-1H-indazole-3-carboxamide]: 1 to 100 nM; for `O=C(Nc1cnn(CCCCN2CCCC(O)C2)c1)c1n[nH]c2ccccc12` (centres unmarked) [Example 76, N-(1-(4-(3-Hydroxypiperidin-1-yl)butyl)-1H-pyrazol-4-yl)-1H-indazole-3-carboxamide]: above 100 nM; for `Cc1ccc(-c2ccc3c(C(=O)Nc4cnn(Cc5cccc(C#N)c5)c4)n[nH]c3c2)cn1` [Example 120, N-(1-(3-cyanobenzyl)-1H-pyrazol-4-yl)-6-(6-methylpyridin-3-yl)-1H-indazole-3-carboxamide]: 1 to 100 nM.
On the same count and under the same terms, then `CCCNCc1ccc(Cn2cc(NC(=O)c3n[nH]c4ccccc34)cn2)cc1` [Example 109, N-(1-(4-((propylamino)methyl)benzyl)-1H-pyrazol-4-yl)-1H-indazole-3-carboxamide], with 1 to 100 nM.
On the same count and under the same terms, the same measure for `O=C(Nc1cnn(Cc2cn3ccccc3n2)c1)c1n[nH]c2cc(-c3cn[nH]c3)ccc12` [Example 19, 6-(1H-Pyrazol-4-yl)-1H-indazole-3-carboxylic acid (1-imidazo[1,2-a]pyridin-2-ylmethyl-1H-pyrazol-4-yl)-amide]: 1 to 100 nM; for `O=C(Nc1cnn(Cc2cscn2)c1)c1n[nH]c2cc(-c3cc[nH]n3)ccc12` [Example 43, 6-(1H-Pyrazol-3-yl)-1H-indazole-3-carboxylic acid (1-thiazol-4-ylmethyl-1H-pyrazol-4-yl)-amide]: 1 to 100 nM.

The same assay, now with this note: Table 3, specific values for certain examples.
The compound `O=C(Nc1cnn(Cc2noc3ccccc23)c1)c1n[nH]c2cc(-c3cn[nH]c3)ccc12` [Example 14, 6-(1H-Pyrazol-4-yl)-1H-indazole-3-carboxylic acid (1-1,2-benzisoxazol-3-ylmethyl-1H-pyrazol-4-yl)-amide] registered an inhibition constant (Ki) of 2 nM.
For `CC[C@@H](c1ccccc1)n1cc(NC(=O)c2n[nH]c3cc(-c4cc[nH]n4)ccc23)cn1` [Example 137, (S)—N-(1-(1-phenylpropyl)-1H-pyrazol-4-yl)-6-(1H-pyrazol-3-yl)-1H-indazole-3-carboxamide], the Ki was 9.9 nM.
`O=C(Nc1cnn(Cc2ccc(Cl)cc2)c1)c1n[nH]c2ccccc12` [Example 58, N-(1-(4-chlorobenzyl)-1H-pyrazol-4-yl)-1H-indazole-3-carboxamide]: the Ki is 39.2 nM.
Still for that read-out and setting: the same measure for `O=C(Nc1cnn(Cc2cn3ccccc3n2)c1)c1n[nH]c2cc(-c3cn[nH]c3)ccc12` [Example 19, 6-(1H-Pyrazol-4-yl)-1H-indazole-3-carboxylic acid (1-imidazo[1,2-a]pyridin-2-ylmethyl-1H-pyrazol-4-yl)-amide]: 2.3 nM.

For the origin of these results see patent publication US20140309210A1, “INDAZOLE COMPOUNDS, COMPOSITIONS AND METHODS OF USE THEREOF” (Genentech, Inc., priority 2011, published 2014).
